According to patent publication US8765773B2, “Substituted hydroxamic acids and uses thereof” (Millennium Pharmaceuticals, Inc., priority 2010, dated 2014):

These compounds were tested against T1, purified human HDAC6 (Homo sapiens, UniProt Q9UBN7) (assay: HDAC6 Enzyme Assay). Settings: compound concentration 0.37 μM, read-out: Percent Inhibition.
T1 construct: purchased BPS Bioscience 5006
T1 sequence (Q9UBN7 1-1215): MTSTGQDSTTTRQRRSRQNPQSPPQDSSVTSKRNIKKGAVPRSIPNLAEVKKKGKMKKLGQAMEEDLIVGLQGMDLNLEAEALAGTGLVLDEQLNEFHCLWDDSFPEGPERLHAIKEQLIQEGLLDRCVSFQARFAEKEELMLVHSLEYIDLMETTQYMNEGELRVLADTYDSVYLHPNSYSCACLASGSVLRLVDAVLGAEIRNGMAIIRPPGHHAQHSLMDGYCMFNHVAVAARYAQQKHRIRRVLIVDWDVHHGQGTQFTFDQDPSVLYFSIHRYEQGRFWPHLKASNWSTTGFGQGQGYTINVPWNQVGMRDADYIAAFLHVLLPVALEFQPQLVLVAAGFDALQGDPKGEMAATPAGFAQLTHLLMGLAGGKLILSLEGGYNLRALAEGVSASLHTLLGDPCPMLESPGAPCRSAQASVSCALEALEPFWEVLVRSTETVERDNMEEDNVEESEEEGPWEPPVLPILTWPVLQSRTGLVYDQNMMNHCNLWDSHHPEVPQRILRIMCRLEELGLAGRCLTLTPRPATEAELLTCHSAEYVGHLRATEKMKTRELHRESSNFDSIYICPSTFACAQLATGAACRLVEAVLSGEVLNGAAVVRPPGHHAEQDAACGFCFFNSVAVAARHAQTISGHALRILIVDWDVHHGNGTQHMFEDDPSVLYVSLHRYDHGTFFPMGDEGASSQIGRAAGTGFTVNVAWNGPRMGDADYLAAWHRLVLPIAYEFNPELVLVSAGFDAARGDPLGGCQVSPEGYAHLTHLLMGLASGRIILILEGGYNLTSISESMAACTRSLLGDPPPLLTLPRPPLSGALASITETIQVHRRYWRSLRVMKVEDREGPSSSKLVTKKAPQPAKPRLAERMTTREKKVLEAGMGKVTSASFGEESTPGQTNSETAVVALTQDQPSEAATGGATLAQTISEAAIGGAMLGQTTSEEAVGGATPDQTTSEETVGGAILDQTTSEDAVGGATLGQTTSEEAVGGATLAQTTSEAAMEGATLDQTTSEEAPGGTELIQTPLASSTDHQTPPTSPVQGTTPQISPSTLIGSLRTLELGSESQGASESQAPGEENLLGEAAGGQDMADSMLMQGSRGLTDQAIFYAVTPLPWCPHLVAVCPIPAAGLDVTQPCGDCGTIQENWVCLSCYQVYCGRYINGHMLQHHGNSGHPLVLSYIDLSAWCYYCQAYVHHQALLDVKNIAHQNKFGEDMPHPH
Assay type: biochemical
Protocol: To measure the inhibition of HDAC6 activity, purified human HDAC6 (BPS Bioscience; Cat. No. 5006) is incubated with substrate Ac-Arg-Gly-Lys(Ac)-AMC peptide (Bachem Biosciences; Cat. No. I-1925) for 1 hour at 30° C. in the presence of test compounds or vehicle DMSO control. The reaction is stopped with the HDAC inhibitor trichostatin A (Sigma; Cat. No. T8552) and the amount of Arg-Gly-Lys-AMC generated is quantitated by digestion with trypsin (Sigma; Cat. No. T1426) and subsequent measurement of the amount of AMC released using a fluorescent plate reader (Pherastar; BMG Technologies) set at Ex 340 nm and Em 460 nm. Concentration response curves are generated by calculating the fluorescence increase in test compound-treated samples relative to DMSO-treated controls, and percentage inhibition values at a single concentration or enzyme inhibition (IC50) values are determined from those curves. One skilled in the art will appreciate that the values generated either as percentage inhibition at a single concentration or IC50 values are subject to experimental variation.

First: CC(=O)Nc1cccc(-c2cccc(Cn3cnc4ccc(C(=O)NO)cc4c3=O)c2)c1 [Compound I-60, 3-{[3′-(acetylamino)biphenyl-3-yl]methyl}-N-hydroxy-4-oxo-3,4-dihydroquinazoline-6-carboxamide]
Second: CC(=O)Nc1ccc(-c2cccc(Cn3cnc4ccc(C(=O)NO)cc4c3=O)c2)cc1 [Compound I-80, 3-{[4′-(acetylamino)biphenyl-3-yl]methyl}-N-hydroxy-4-oxo-3,4-dihydroquinazoline-6-carboxamide]
The inhibition at 0.37 µM of the first is higher: 98.4% for the first, 86.7% for the second.

Going from `O=C(NO)c1ccc2ncn(Cc3cccc(-c4ccc(C(F)(F)F)cc4)c3)c(=O)c2c1` [Compound I-69, N-hydroxy-4-oxo-3-{[4′-(trifluoromethyl)biphenyl-3-yl]methyl}-3,4-dihydroquinazoline-6-carboxamide] to `O=C(NO)c1ccc2ncn(Cc3cccc(-c4cc(C(F)(F)F)cc(C(F)(F)F)c4)c3)c(=O)c2c1` [Compound I-79, 3-{[3′,5′-bis(trifluoromethyl)biphenyl-3-yl]methyl}-N-hydroxy-4-oxo-3,4-dihydroquinazoline-6-carboxamide], the inhibition at 0.37 µM rises from 82% to 84.1%.

First: O=C(NO)c1ccc2ccn(Cc3cccc(-n4cccn4)c3)c(=O)c2c1 [Compound I-82, N-hydroxy-1-oxo-2-[3-(1H-pyrazol-1-yl)benzyl]-1,2-dihydroisoquinoline-7-carboxamide]
Second: O=C(NO)c1ccc2c(=O)n(Cc3ccc(C(F)(F)F)cc3)c(-c3ccc4ccccc4c3)nc2c1 [Compound I-85, N-hydroxy-2-(2-naphthyl)-4-oxo-3-[4-(trifluoromethyl)benzyl]-3,4-dihydroquinazoline-7-carboxamide]
The inhibition at 0.37 µM of the first is higher: 100% for the first, 72.6% for the second.

Same assay, conditions: compound concentration 0.412 μM, read-out: Percent Inhibition

First: O=C(NO)c1ccc2ccn(Cc3cccc(C(F)(F)F)c3)c(=O)c2c1 [Compound I-61, N-hydroxy-1-oxo-2-[3-(trifluoromethyl)benzyl]-1,2-dihydroisoquinoline-7-carboxamide]
Second: O=C(NO)c1ccc2ccn(Cc3ccc(C(F)(F)F)cc3)c(=O)c2c1 [Compound I-75, N-hydroxy-1-oxo-2-[4-(trifluoromethyl)benzyl]-1,2-dihydroisoquinoline-7-carboxamide]
The inhibition at 0.412 µM of the first is higher: 95.7% for the first, 94.6% for the second.

Going from `O=C(NO)c1ccc2ccn(CCCCOc3ccccc3)c(=O)c2c1` [Compound I-62, N-hydroxy-1-oxo-2-(4-phenoxybutyl)-1,2-dihydroisoquinoline-7-carboxamide] to `O=C(NO)c1ccc2ccn(CCCOc3cccc(-c4csnn4)c3)c(=O)c2c1` [Compound I-72, N-hydroxy-1-oxo-2-{3-[3-(1,2,3-thiadiazol-4-yl)phenoxy]propyl}-1,2-dihydroisoquinoline-7-carboxamide], the inhibition at 0.412 µM falls from 98% to 94.1%.

Going from `O=C(NO)c1ccc2ncn(Cc3ccccc3Cl)c(=O)c2c1` [Compound I-63, 3-(2-chlorobenzyl)-N-hydroxy-4-oxo-3,4-dihydroquinazoline-6-carboxamide] to `O=C(NO)c1ccc2ncn(Cc3nc4ccccc4s3)c(=O)c2c1` [Compound I-67, 3-(1,3-benzothiazol-2-ylmethyl)-N-hydroxy-4-oxo-3,4-dihydroquinazoline-6-carboxamide], the inhibition at 0.412 µM falls from 93.2% to 49.2%.

First: O=C(NO)c1ccc2ccn(C3CCC3)c(=O)c2c1 [Compound I-64, 2-cyclobutyl-N-hydroxy-1-oxo-1,2-dihydroisoquinoline-7-carboxamide]
Second: O=C(NO)c1ccc2ccn(Cc3ccc(F)cc3)c(=O)c2c1 [Compound I-76, 2-(4-fluorobenzyl)-N-hydroxy-1-oxo-1,2-dihydroisoquinoline-7-carboxamide]
The inhibition at 0.412 µM of the first is lower: 93.1% for the first, 93.8% for the second.

First: O=C(NO)c1ccc2ccn(Cc3c(F)c(F)c(F)c(F)c3F)c(=O)c2c1 [Compound I-65, N-hydroxy-1-oxo-2-(pentafluorobenzyl)-1,2-dihydroisoquinoline-7-carboxamide]
Second: O=C(NO)c1ccc2ccn(Cc3ccc(C(F)(F)F)cc3C(F)(F)F)c(=O)c2c1 [Compound I-78, 2-[2,4-bis(trifluoromethyl)benzyl]-N-hydroxy-1-oxo-1,2-dihydroisoquinoline-7-carboxamide]
The inhibition at 0.412 µM of the first is higher: 93% for the first, 92.9% for the second.

First: O=C(NO)c1ccc2c(=O)[nH]c(COc3ccc4c(c3)OCO4)nc2c1 [Compound I-66, 2-[(1,3-benzodioxol-5-yloxy)methyl]-N-hydroxy-4-oxo-3,4-dihydroquinazoline-7-carboxamide]
Second: CCN(CC)Cc1nc2cc(C(=O)NO)ccc2c(=O)[nH]1 [Compound I-84, 2-[(diethylamino)methyl]-N-hydroxy-4-oxo-3,4-dihydroquinazoline-7-carboxamide]
The inhibition at 0.412 µM of the first is higher: 89.5% for the first, 60.5% for the second.

Going from `O=C(NO)c1ccc2c(=O)[nH]c(C(=O)NCc3ccc(Cl)cc3)nc2c1` [Compound I-68, N^2-(4-chlorobenzyl)-N^7-hydroxy-4-oxo-3,4-dihydroquinazoline-2,7-dicarboxamide] to `O=C(NO)c1ccc2c(=O)n(-c3ccccc3)c(NCc3ccc(Cl)cc3)nc2c1` [Compound I-86, 2-[(4-chlorobenzyl)amino]-N-hydroxy-4-oxo-3-phenyl-3,4-dihydroquinazoline-7-carboxamide], the inhibition at 0.412 µM rises from 61.7% to 74.2%.

Going from `COc1ccc(Nc2nc3ccc(C(=O)NO)cc3c(=O)n2C)cc1` [Compound I-70, N-hydroxy-2-[(4-methoxyphenyl)amino]-3-methyl-4-oxo-3,4-dihydroquinazoline-6-carboxamide] to `O=C(NO)c1ccc2ccn(Cc3cccc4cccnc34)c(=O)c2c1` [Compound I-83, N-hydroxy-1-oxo-2-(quinolin-8-ylmethyl)-1,2-dihydroisoquinoline-7-carboxamide], the inhibition at 0.412 µM rises from 46.7% to 89.7%.

First: O=C(NO)c1ccc2ccn(CCOc3ccccc3-n3cccc3)c(=O)c2c1 [Compound I-71, N-hydroxy-1-oxo-2-{2-[2-(1H-pyrrol-1-yl)phenoxy]ethyl}-1,2-dihydroisoquinoline-7-carboxamide]
Second: O=C(NO)c1ccc2ccn(CCNCc3cccc(C(F)(F)F)c3)c(=O)c2c1 [Compound I-77, N-hydroxy-1-oxo-2-(2-{[3-(trifluoromethyl)benzyl]amino}ethyl)-1,2-dihydroisoquinoline-7-carboxamide]
The inhibition at 0.412 µM of the first is higher: 98.5% for the first, 91% for the second.

First: O=C(NO)c1ccc2c(=O)n(Cc3ccc(C(F)(F)F)cc3)c(-c3ccccc3)nc2c1 [Compound I-73, N-hydroxy-4-oxo-2-phenyl-3-[4-(trifluoromethyl)benzyl]-3,4-dihydroquinazoline-7-carboxamide]
Second: CC(C)Cc1nc2cc(C(=O)NO)ccc2c(=O)n1Cc1ccc(C(F)(F)F)cc1 [Compound I-81, N-hydroxy-2-isobutyl-4-oxo-3-[4-(trifluoromethyl)benzyl]-3,4-dihydroquinazoline-7-carboxamide]
The inhibition at 0.412 µM of the first is higher: 87.7% for the first, 76.7% for the second.

Compared with `O=C(NO)c1ccc2c(=O)n(CCCc3ccccc3)cnc2c1` [Compound I-74, N-hydroxy-4-oxo-3-(3-phenylpropyl)-3,4-dihydroquinazoline-7-carboxamide], `CC(C)(C)c1ccc(Cn2cnc3cc(C(=O)NO)ccc3c2=O)cc1` [Compound I-87, 3-(4-tert-butylbenzyl)-N-hydroxy-4-oxo-3,4-dihydroquinazoline-7-carboxamide] is lower in inhibition at 0.412 µM: 94.8% for the first, 91% for the second.

Work on `CC1(C)CCC(C)(C)c2cc(Cn3ccc4ccc(C(=O)NO)cc4c3=O)ccc21` [Compound I-88, N-hydroxy-1-oxo-2-[(5,5,8,8-tetramethyl-5,6,7,8-tetrahydronaphthalen-2-yl)methyl]-1,2-dihydroisoquinoline-7-carboxamide] yielded an inhibition at 0.412 µM of 90%.
